How the values were obtained:
Assay in all cases: TLR2, TLR4, TLR7/8 NFkB reporter inhibition, late-stage follow-up, selectivity assay for TLR9 inhibitor project, RAW264.7 cells, luminescence, powder samples (AID 720520); call rule not given here
TLR2 = details: RAW264.7 TLR2/4/7-8 NFkB-luciferase reporter, 6 h, with MALP-2 50 ng/mL
TLR4 = details: RAW264.7 TLR2/4/7-8 NFkB-luciferase reporter, 6 h, with LPS 0.1 µg/mL
TLR7/8 = details: RAW264.7 TLR2/4/7-8 NFkB-luciferase reporter, 6 h, with R848 1 µg/mL

Measured: IC50

O=S(=O)(/C=C/C=C/S(=O)(=O)c1ccccc1)c1ccccc1
active: TLR2 0.126 µM | TLR4 0.126 µM | TLR7/8 0.093 µM

O=C1C=CC2(C=C1)O[C@H](Cc1ccccc1)[C@@H](Cc1ccccc1)O2
active: TLR2 0.226 µM | TLR4 0.226 µM | TLR7/8 0.245 µM

COc1ccc(C[C@@H]2OC3(C=CC(=O)C=C3)O[C@H]2Cc2ccc(OC)cc2)cc1
active: TLR2 0.058 µM | TLR4 0.072 µM | TLR7/8 0.08 µM

Reference: PubChem BioAssay AID720520 (The Scripps Research Institute Molecular Screening Center, 2013)
